# What was measured:
# human DNMT1 = target: T1, human DNMT1 (Homo sapiens, UniProt P26358); assay: DNMT1 assay (radiolabeled SAM, Flashplate); assay type: biochemical; conditions: radioactivity assay; at least two independent experiments; read-out: EC50 ± SD, hDNMT1
# T1 construct: His; made in house
# Protocol: His-DNMT1 (182 kDa, human) was cloned, expressed, and purified as described by Lee et al.. The DNMT1 assay was performed according to Gros et al.. Briefly, the DNMT1 enzymatic assay is based on the use of radiolabeled SAM, and the methylation occurs in homogeneous phase in 384-well microplates. The reaction is performed with DNMT1 at the final concentration of 90 nM in a total volume of 10 μL including also the chemical compound to be tested at the desired concentration, 1.25 μM of SAM//[methyl-^3H] SAM (3TBq/mmol) mix in a ratio of 3:1 and 0.3 μM of biotinylated DNA duplex. DNMT1, as “maintenance” methyltransferase, requires hemimethylated DNA for the reaction. After 2 h incubation at 37 °C, 8 μL of the reaction’s solution is transferred into a streptavidin 96-well scintillant coated Flashplate^TM containing 190 μL of […] in 50 mM Tris-HCl (pH 7.4). The Flashplate^TM is then agitated at room temperature for 1 h and washed. The plate is read with TopCount (PerkinElmer, Villebon-sur-Yvette, France). The greater the DNMT1 inhibition, the lower will be the scintillation signal correlated to the incorporation of the tritiated methyl groups. In this assay, the negative and positive controls were defined as wells without enzyme and wells without any compound but just DMSO, respectively.
# human C-terminal DNMT3A = target: T2, human C-terminal DNMT3A (Homo sapiens, UniProt Q9Y6K1); assay: DNMT3A restriction-based fluorescence assay; assay type: biochemical; conditions: fluorescent assay; C-terminal catalytic domain; read-out: EC50 ± SD, hDNMT3A
# T2 construct: the C-terminal catalytic domain of human DNMT3A (hDNMT3A)
# T2 sequence (Q9Y6K1 634-912 limits assumed): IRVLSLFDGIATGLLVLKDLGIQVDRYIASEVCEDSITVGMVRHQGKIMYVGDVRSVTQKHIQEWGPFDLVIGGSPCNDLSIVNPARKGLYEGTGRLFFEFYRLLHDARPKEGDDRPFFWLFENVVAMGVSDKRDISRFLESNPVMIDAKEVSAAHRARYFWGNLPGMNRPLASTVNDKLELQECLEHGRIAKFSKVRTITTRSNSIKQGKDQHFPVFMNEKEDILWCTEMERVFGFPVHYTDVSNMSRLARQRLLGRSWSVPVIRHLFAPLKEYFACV
# Protocol: DNMT3A enzyme inhibition was adapted from the restriction-based fluorescence assay protocol described in Ceccaldi et al.. Briefly, it is performed in a 384-well microplate in a total volume of 50 μL. An oligonucleotide labeled at the 5′ end with biotin is hybridized to his complementary strand labeled at the 3′ end with 6-carboxyfluorescein. The DNA duplex thus formed contains only one single CpG site overlapping with a restriction site of a methylation sensitive restriction enzyme. The duplex is transferred in the wells coated with avidin. Thus, the duplex is fixed to the plate. The methylation reaction is performed by adding human C-terminal DNMT3A at the final concentration of 4 ng/μL in a total volume of 50 μL in the presence of the chemical compound to be tested at the desired concentration and the cofactor SAM at the final concentration of 20 μM. After incubation (1 h at 37 °C), the plate is washed and the methylation sensitive restriction enzyme HpyCH4IV is added. After 1-h incubation at 37 °C, the plate is washed and the fluorescence measured with a PerkinElmer Envision Multilabel Plate Reader (PerkinElmer, Villebon-sur-Yvette, France). The data are expressed as a percentage of inhibition vs. log concentration (M). Data are normalized referring to the “restriction control” (wells coated with labeled duplex not treated nor exposed to DNMT3A, but only cleaved by HpyCH4IV) as the maximum of inhibition (100%) and to the “DMSO control” (wells coated with labeled duplex but treated just with 0.1% DMSO exposed to DNMT3A and then to HpyCH4IV) as the minimum of inhibition (0%; total methylation).
# [1] = test system: methylated UCHL1 promoter EGFP reporter in HCT116 cells; assay: UCHL1 promoter demethylation assay (EGFP expression, FACS) in HCT116; assay type: cell-based, human; conditions: 5 μM, 5 days, HCT116 with methylated pUCHL1 vector
# Protocol: Human colon cancer HCT116 (ATCC, VA, USA) cells were propagated in McCoy’s 5A medium (Euroclone, Milan, Italy) with 10% fetal bovine serum (FBS; Euroclone), 2 mM L-glutamine (Euroclone), and antibiotics (100 U/mL penicillin, 100 µg/mL streptomycin) (Euroclone). For the treatments with MC3353, 5-AZA, and DAC as positive controls, 2 × 10^4 cells were seeded in 6-well plates in triplicate. Cells were treated every 2 days, and the medium was changed. On day 5, cells were observed under a fluorescent microscope. The nuclei were counterstained with DAPI (10 μg/mL, Invitrogen, Tournai, Belgium).
# Fluorescence of EGFP and DAPI in living cells was analyzed by Cytation™ 5 Cell Imaging Multi-Mode Reader (BioTeK, Milan, Italy).
# Before the transfection, the pUMLIEP vector was linearized by with ClaI restriction enzyme (New England Biolabs, Milan, Italy) and then it was methylated by SssI-methylase (New England Biolabs, Milan, Italy) for 60 min. The methylated vector was transfected into HCT116 cells using Lipofectamine™2000 (Invitrogen, Monza, Italy) and Opti-MEM® (Gibco, Monza, Italy), and stably introduced clones were selected with puromycin (1.0 μg/mL, Sigma-Aldrich, Milan, Italy). The detailed protocol for the generation of cells highly responsive to DNA demethylating agents is described in [27].
# Next, the demethylating activity of MC3353 was evaluated in cells transfected with luciferase and EGFP reporter genes driven by the UCHL1 promoter. The UCHL1 promoter is silenced by methylation in human colon cancer and can be demethylated by specific treatments, inducing expression of Metridia luciferase and EGFP reporter genes. In particular, the pUCHL1 vector, after methylation, was transfected into HCT116 colon cancer cells, and the stable clone was obtained by puromycin selection. Afterwards, cells were treated with 5-AZA (5 μM), with DAC (5 μM), or with MC3353 (0.1 μM) for 5 days. Such a low MC3353 dose was used because of its cytotoxicity at higher concentrations in long treatments.
# HCT116 cells = assay: MTT proliferation assay HCT116; assay type: cell-based, human; conditions: 24 and 48 h; MC3353 from 0.5 μM after 48 h; DAC at 10 μM
# Protocol: (§1) The MTT [3-(4,5-dimethylthiazol-2-yl)-2,5-diphenyltetrazolium bromide] (Sigma-Aldrich, Milan, Italy) assay was used to determine the proliferation of HCT116 clone and DKO HCT116 cells after treatment with MC3353, 5-AZA, and DAC. 5 × 10^4 cells/well for both cell lines were plated in 24-well plate and treated, in duplicate, with compounds at several concentrations for 24 and 48 h of induction. After treatments, MTT solution was added for 3 h at 0.5 mg/mL, the purple formazan crystals were dissolved in DMSO (Sigma-Aldrich, Milan, Italy), and the absorbance was read at a wavelength of 570 nm with reader TECAN M-200.
# [2] = test system: double DNMT knockout (DKO) HCT116 cells; assay: MTT proliferation assay DKO HCT116; assay type: cell-based, human; conditions: 24 and 48 h; MC3353 at 0.5 μM after 48 h; DAC, 5-AZA up to highest dose
# Protocol: DKO HCT116 (ATCC, VA, USA) cells were propagated in Dulbecco’s modified Eagle medium (DMEM) (Euroclone, Milan, Italy) with 10% fetal bovine serum (FBS; Euroclone, Milan, Italy), 2 mM L-glutamine (Euroclone, Milan, Italy) and antibiotics (100 U/mL penicillin, 100 µg/mL streptomycin) (Euroclone, Milan, Italy).
# as §1
# [3] = test system: E-cadherin mRNA in HCT116 cells; assay: qPCR of E-cadherin in HCT116; assay type: cell-based, human; conditions: MC3353 0.1 μM 24 h; 5-AZA, DAC every 2 days for 5 days at 0.1, 1, 5 μM
# Excerpt: (§2) RNAs were extracted by ReliaPrep™ RNA Tissue Miniprep (Promega, Madison, WI, USA) and reverse transcribed with PrimeScript RT Master Mix (Takara, Kusatsu, Shiga, Japan). cDNAs were amplified by a qPCR reaction using GoTaq qPCR Master Mix (Promega) and analyzed with the oligonucleotide pairs specific for the target genes. Relative amounts, determined with the 2^(−ΔCt) method, were normalized with respect to the human housekeeping gene L32. The primers used are as follows: L32 (forward: 5′-[…]-3′, reverse: 5′-[…]-3′), E-cadherin (forward: 5′-[…]-3′, reverse: 5′-[…]-3′), and MMP2 (forward: 5′-[…]-3′, reverse: 5′-[…]-3′).
# (§3) Prompted by these findings, we investigated the ability of MC3353 to modulate EMT pathway, using 5-AZA and DAC as reference drugs. […] The levels of mRNA transcripts of E-cadherin and matrix metalloproteinase-2 (MMP2) were determined. E-cadherin is involved in the maintenance of the epithelial identity and in the control of tumor invasiveness, whereas MMP2, through degradation of type IV collagen, the most abundant component of the basement membrane, controls an essential step for metastatic progression of most cancers as well as for induction of angiogenesis.
# [4] = test system: E-cadherin mRNA in PC-3 cells; assay: qPCR of E-cadherin in PC-3; assay type: cell-based, human; conditions: MC3353 24 h; 5-AZA, DAC 5 days, effect from 1 to 5 μM
# Excerpt: as §2, §3
# [5] = test system: MMP2 mRNA in HCT116 cells; assay: qPCR of MMP2 in HCT116; assay type: cell-based, human; conditions: MC3353 0.1 and 1 μM 24 h; 5-AZA, DAC 5 days, also at 0.1 to 1 μM
# Excerpt: as §2, §3
# MMP2 mRNA in PC-3 cells = assay: qPCR of MMP2 in PC-3; assay type: cell-based, human; conditions: MC3353 0.1 and 1 μM 24 h; 5-AZA, DAC 5 days, also at 0.1 to 1 μM
# Excerpt: as §2, §3
# T1 sequence (P26358 whole entry): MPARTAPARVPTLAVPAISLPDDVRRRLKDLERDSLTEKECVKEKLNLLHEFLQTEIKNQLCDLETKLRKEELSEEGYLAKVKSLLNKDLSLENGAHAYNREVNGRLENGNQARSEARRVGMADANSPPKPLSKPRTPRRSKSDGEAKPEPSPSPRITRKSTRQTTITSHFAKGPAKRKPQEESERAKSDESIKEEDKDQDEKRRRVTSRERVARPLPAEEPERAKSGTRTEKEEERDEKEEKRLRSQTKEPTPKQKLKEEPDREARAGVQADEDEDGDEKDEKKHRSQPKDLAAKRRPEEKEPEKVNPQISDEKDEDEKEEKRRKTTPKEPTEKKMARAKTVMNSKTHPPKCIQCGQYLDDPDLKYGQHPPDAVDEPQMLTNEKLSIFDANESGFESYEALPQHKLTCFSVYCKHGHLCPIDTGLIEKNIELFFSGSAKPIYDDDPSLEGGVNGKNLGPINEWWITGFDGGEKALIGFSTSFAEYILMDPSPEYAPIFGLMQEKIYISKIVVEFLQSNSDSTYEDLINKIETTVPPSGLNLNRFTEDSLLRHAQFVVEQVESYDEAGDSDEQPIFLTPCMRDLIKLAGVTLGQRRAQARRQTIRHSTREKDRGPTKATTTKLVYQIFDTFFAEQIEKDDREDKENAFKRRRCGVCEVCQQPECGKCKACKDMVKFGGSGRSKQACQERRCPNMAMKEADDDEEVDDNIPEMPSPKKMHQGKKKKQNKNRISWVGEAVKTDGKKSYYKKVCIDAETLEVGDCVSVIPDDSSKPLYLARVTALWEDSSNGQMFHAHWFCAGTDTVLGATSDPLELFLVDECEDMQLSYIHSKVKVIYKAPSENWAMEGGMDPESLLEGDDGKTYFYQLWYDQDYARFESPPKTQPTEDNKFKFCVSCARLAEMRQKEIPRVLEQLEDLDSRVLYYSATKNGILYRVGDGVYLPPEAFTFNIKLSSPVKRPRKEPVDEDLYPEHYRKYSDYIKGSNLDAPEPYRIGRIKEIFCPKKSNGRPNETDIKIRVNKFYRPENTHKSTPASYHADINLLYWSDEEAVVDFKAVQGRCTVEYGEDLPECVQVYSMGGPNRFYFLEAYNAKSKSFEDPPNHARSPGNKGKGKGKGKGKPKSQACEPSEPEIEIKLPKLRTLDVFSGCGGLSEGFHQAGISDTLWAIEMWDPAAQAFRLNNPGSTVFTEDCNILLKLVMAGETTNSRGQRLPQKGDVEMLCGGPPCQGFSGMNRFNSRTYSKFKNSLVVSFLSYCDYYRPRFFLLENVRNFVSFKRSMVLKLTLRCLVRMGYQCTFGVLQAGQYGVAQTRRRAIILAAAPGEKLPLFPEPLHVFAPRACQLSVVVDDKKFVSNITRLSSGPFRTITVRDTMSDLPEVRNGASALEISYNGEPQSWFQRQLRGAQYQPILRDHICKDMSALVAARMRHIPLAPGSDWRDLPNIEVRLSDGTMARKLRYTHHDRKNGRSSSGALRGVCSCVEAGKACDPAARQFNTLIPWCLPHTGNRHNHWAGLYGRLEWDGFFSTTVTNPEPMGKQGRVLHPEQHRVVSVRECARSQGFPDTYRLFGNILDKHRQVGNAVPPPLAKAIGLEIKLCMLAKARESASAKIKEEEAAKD
EC50 (human DNMT1) [µM],EC50 (human C-terminal DNMT3A) [µM],SMILES,EGFP gene expression induction (FACS) [1] [%],effect on HCT116 proliferation (MTT) (HCT116 cells),effect on DKO HCT116 proliferation (MTT) [2],"E-cadherin mRNA expression, HCT116 [3]","E-cadherin mRNA expression, PC-3 [4]","MMP2 mRNA expression, HCT116 [5]","MMP2 mRNA expression, PC-3 (MMP2 mRNA in PC-3 cells)"
390 ± 50,> 500,"O=C(O)C(Cc1c[nH]c2ccccc12)N1C(=O)c2ccccc2C1=O (stereo not drawn) [RG-108, reference compound]",,,,,,,
,,"Nc1ncn([C@@H]2O[C@H](CO)[C@@H](O)[C@H]2O)c(=O)n1 [Compound 5-AZA, 5-azacytidine]",38.5,negligible effect,weak effect,able to induce E-cadherin expression,able to induce E-cadherin expression,increased MMP2 level,increased MMP2 level

# Source: article PMC6501426 (Clinical Epigenetics, 2019)
